The values that follow come from US20230248850A1, “GOLD MOLECULAR CLUSTERS AND METHODS OF USING SAME FOR NEAR-INFRARED IMAGING” (The Board of Trustees of the Leland Stanford Junior …, priority 2022, published 2023).

One series relates to serum proteins (FBS). The experiment in a line: in vitro. The series is classed as in vitro ADME. The note with it: bovine. The procedure: Evaluated next were the serum protein binding capabilities of Au-GSH cluster and Au-PC conjugate with FBS and compared to that of ICG. Briefly, the clusters and ICG were incubated with FBS for 1 h at 37° C. (FIG. 12). Afterwards, the solutions were filtered using Amicon 50 kDa centrifuge filters (FIGS. 12A and 12B). Au clusters bound to serum proteins will not pass filter while free unbound clusters will be lost to the filtrate. The optical density (OD) of filtrate (in case of Au-GSH and Au-PC) and retentate (in case of ICG) at 808 nm were measured and the corresponding serum protein binding efficiencies were calculated (FIG. 12C). The schematics of the experiments, figures, and absorbance values of Au-GSH+FBS and Au-PC+FBS filtrates as well as ICG+FBS retentate can be found in FIG. 12. The serum protein binding efficiencies for Au-GSH cluster, Au-PC conjugate and ICG were calculated to be 2.7%, 1.74% and 94.5%, respectively.

For series [1], the system named is Balb/c mice. The experiment in a line: In vivo NIR-II fluorescence imaging after intravenous injection. The arrangement: species or system mouse. The conditions noted are these: i.v. injection, up to 24 h p.i. How it is done:
In vivo, the Au-GSH and Au-PC clusters dissolved in PBS were first intravenously (i.v.) administered to mice (5-7 weeks old female Balb/c, n=3 in each group) through tail-vein injection, imaged in the >1100 nm NIR-II window and compared side by side with the clinically approved ICG dye. The bladder NIR-II signals in mice rapidly lit up, at ˜3 min postinjection (p.i) (FIG. 2A, 2B ventral view), as a consequence of kidney drainage for fast renal clearance (dorsal/lateral view images in FIGS. 13A and 14A, respectively).
(§1) The animal experiments and imaging in the NIR-II window were conducted in a two-dimensional, water-cooled 640×512 InGaAs array (Ninox 640, Raptor Photonics). The clusters were excited by an 808-nm continuous-wave diode laser at a power density of 70 mW/cm^2. 1100 nm long-pass filter was used in all the imaging experiments unless stated otherwise. The fluorescent probes were administered through tail vein (intravenous, i.v.), tail base (subcutaneous, s.c.) and (peri)intratumoral (i.t.). NIR-II fluorescence images were recorded at 3 min, 10 min, 30 min, 1 h, 3 h, 6 h, 24 h, 48 h p.i.

In series [2] the test system is mice bearing syngeneic 4T1 murine breast tumors. Briefly: NIR-II lymph node imaging after intra-/peri-tumoral injection, 4T1 tumors. The format is in vivo, mouse. How it is done:
For lymph node imaging, intra-tumor/peri-tumor administration (i.t.) of Au-PC clusters to mice (5-7 weeks old female Balb/c, n=3 in each group) bearing syngeneic 4T1 murine breast tumors and CT26 colon tumors inoculated on hindlimbs was performed. Several doses of Au-PC probes, including 4× (˜1.2 mg, tumors on both hindlimbs), 1× (˜300 μg, tumor on the right hindlimb) and ⅓× (˜100 μg, tumor on the right hindlimb) were administered (FIG. 3A, FIGS. 16 and 17). The draining inguinal lymph nodes (iLN) started to show NIR-II emission of Au-PC within ˜1 min p.i. and reached high brightness within ˜3 min p.i. (FIG. 3A, FIG. 17 for 4T1; FIG. 12A for CT26 tumor). The LN signal persisted for over 1 h in the draining iLNs (FIG. 3A) after reaching peak intensity at ˜30 min p.i., with a LN/background signal ratio ˜5-10 (FIG. 3D, FIG. 12D). […] The signal completely disappeared after […] p.i. of the Au-PC probe. The Au-PC clusters afforded rapid and effective imaging/detection of the primary tier draining LNs with much weaker signals in higher tier nodes.
3-9-week-old BALB/c female mice (weight: 15-20 g) were purchased from Charles River. The mice were housed on a 12-hour light/12-hour dark at ambient temperature =20-25° C. and humidity=50-65% in Stanford University's Veterinary Service Center. The bedding, nesting material, food and water were provided by the Stanford VSC facility. Prior to each experiment, the mice were shaved using hair-removing lotion (Nair, Softening Baby Oil). For in vivo imaging, the mice were anaesthetized by 2.5% isoflurane and oxygen as a carrying gas at a flow rate of 2 L/min. Per animal care protocols, the mice were carefully monitored during the imaging process and postrecovery period. The experimental groups consisted of n=3 mice. […]
The animal experiments and imaging in the NIR-II window were conducted in a two-dimensional, water-cooled 640×512 InGaAs array (Ninox 640, Raptor Photonics). […] NIR-II fluorescence images were recorded at 3 min, 10 min, 30 min, 1 h, 3 h, 6 h, 24 h, 48 h p.i.

Series [3] in a line: Excretion by ICP-MS after intra-tumoral injection. The series is classed as in vivo, mouse. The note with it: i.t. injection. The procedure:
The biodistribution of probes was analyzed 10 min, 30 min, 24 h or 48 h postadministration. The urine, feces and major organs including the liver, spleen, heart, lungs, and kidneys were collected and digested in nitric acid (68%) for 12 h. Afterwards, the solutions were heated to 150° C. in the digestion solution (nitric acid:hydrogen peroxide=4:1) until transparent and colorless solution was obtained. The concentration of gold in each sample was measured by ICP-MS (Thermo Scientific ICAP 6300 Duo View Spectrometer).

The subject of series [4] is Balb/c mice. The experiment in a line: NIR-II lymph node imaging after subcutaneous injection at tail base. The series is classed as in vivo, mouse. The note with it: s.c. tail base. The procedure: Investigated next was LN draining post subcutaneous (s.c.) injection of the three probes at the mouse tail base (FIG. 5) (5-7 weeks old female Balb/c, n=3 in each group). The Au-PC clusters within 3 min p.i. migrated to the lymphatic vessels connecting the injection site to the draining iLN (FIG. 5A and FIG. 23). Strong signals in the iLN were seen up to 1 h and decreased by ˜40% 2 h p.i. (FIG. 5D). […] In contrast, upon ICG administration (FIG. 5C), the fluorescent signal in iLN appeared 3 min p.i. but with an intensity much lower compared to that of Au-PC probe at the same time postinjection (FIG. 5F). After 2-3 h p.i. (or even later) ICG signal in the iLN reached peak intensity and persisted. […] The retention of ICG at the injection site persisted over an extended period of time (FIG. 5F) much longer than Au-PC. The Au-PC molecular clusters were also unique with little retention at subcutaneous injection sites among various nanomaterials (with well-coated hydrophilic layers such as PEG) including quantum dots (QDs), carbon nanotubes (CNTs) and organic NIR II dyes^67,68. The trapping of NIR-II probes at the injection site and staining it for weeks is undesirable due to potential long-term side effects.
as §1

“Also recorded” adds a separate entry of the source.

`CC1(C)C(/C=C/C=C/C=C/C=C2\N(CCCCS(=O)(=O)O)c3ccc4ccccc4c3C2(C)C)=[N+](CCCCS(=O)(=O)[O-])c2ccc3ccccc3c21` [ICG, indocyanine green] gave a fraction unbound at 1 h in the series with serum proteins (FBS) of 0.055. The “NIR-II signal distribution and retention in organs” value in the series on Balb/c mice [1] is “strong NIR-II signals were observed in liver and intestine; also recorded: no significant ICG retention in major organs”. Besides, the “signal at tumor injection site 24 h p.i.” value in series [2] (i.t. injection) is “significant signals were still detected at the tumor injection sites”. Besides, the “time of peak lymph node intensity” value in series [2] (i.t. injection into 4T1 tumor) was 2 to 3 h. The “LN/background (LN/B) signal ratio” value in series [2] (i.t. injection, 4T1 tumors, at peak intensity) came to 4. For the same compound, in series [3], the excretion route entry is “liver excretory system”. For the same compound, in the series with Balb/c mice [4], the “signal retention at 24 h p.i.” value was “significant signal still remained in the lymph node, at the injection site and in the liver”; the “time fluorescent signal in iLN appeared” value is listed as 3 min; the “time of iLN signal peak” value was in the range of 2 to 3 h.
